Values after ≈ are worked out from the molar mass of the structure shown. Peptide text beside a SMILES is read from it.
system: S. pneumoniae; test: not given; type: cell-based, Streptococcus pneumoniae; settings: not given
Description: (§1) In certain embodiments the MIC assays are performed as described herein in the Examples. For each organism, the media and growth conditions utilized is detailed in Table 8.
(§2) In certain embodiments the MIC assays are performed as follows: For each organism, the media and growth conditions utilized is detailed in Table 8.

Compound	MIC [µM]
CC[C@H](C)[C@H](NC(=O)[C@H](CCCNC(=N)N)NC(=O)[C@H](CO)NC(=O)[C@H](CC(C)C)NC(=O)[C@H](C)NC(=O)[C@H](C)NC(=O)[C@H](CC(C)C)NC(=O)[C@@H](NC(=O)[C@@H]1CCCN1C(=O)[C@H](CCCCN)NC(=O)[C@H](Cc1c[nH]cn1)NC(=O)[C@H](Cc1ccc(O)cc1)NC(=O)[C@H](CS)NC(=O)[C@@H](NC(=O)[C@H](CCCNC(=N)N)NC(=O)[C@@H]1CCCN1C(=O)[C@H](C)NC(=O)[C@H](CC(=O)O)NC(=O)[C@@H]1CCCN1)[C@@H](C)O)[C@@H](C)CC)C(=O)N[C@H](C(=O)N[C@H](C(=O)N[C@H](C(=O)N[C@@H](CC(=O)O)C(=O)N[C@@H](CCCNC(=N)N)C(=O)O)[C@@H](C)O)C(C)C)C(C)C [PF-524] (H-PDAPRTCYHKPILAALSRIVVTDR-OH; N-terminus and C-terminus assumed)	50 (≈ 135 µg/mL)
CC(C)C[C@H](NC(=O)[C@H](CC(C)C)NC(=O)[C@H](Cc1c[nH]cn1)NC(=O)[C@H](CC(N)=O)NC(=O)[C@H](CCCCN)NC(=O)[C@H](CC(C)C)NC(=O)[C@H](CO)NC(=O)[C@H](CCCNC(=N)N)NC(=O)[C@H](CO)NC(=O)[C@H](C)NC(=O)[C@H](CCC(N)=O)NC(=O)[C@H](CCCCN)NC(=O)[C@H](CO)NC(=O)[C@H](C)NC(=O)[C@H](CCC(N)=O)NC(=O)[C@H](CCCCN)NC(=O)[C@H](CO)NC(=O)[C@H](C)NC(=O)[C@H](CCC(N)=O)NC(=O)[C@H](CCCCN)NC(=O)[C@H](CO)NC(=O)[C@H](C)NC(=O)[C@H](CCC(N)=O)NC(=O)[C@H](CCCCN)NC(=O)[C@H](CO)NC(=O)[C@H](C)NC(=O)[C@H](CCC(N)=O)NC(=O)[C@H](CCCCN)NC(=O)[C@H](CO)NC(=O)[C@H](C)N)C(=O)O [PF-523] (H-ASKQASKQASKQASKQASKQASRSLKNHLL-OH; N-terminus and C-terminus assumed)	50 (≈ 161 µg/mL)
CC[C@H](C)[C@H](NC(=O)[C@@H](NC(=O)[C@@H](NC(=O)[C@@H]1CCCN1C(=O)[C@@H](NC(=O)[C@H](CCC(=O)O)NC(=O)[C@H](CC(=O)O)NC(=O)[C@H](CC(=O)O)NC(=O)[C@H](CC(=O)O)NC(=O)[C@H](CCC(N)=O)NC(=O)[C@H](Cc1ccccc1)NC(=O)[C@H](CC(=O)O)NC(=O)[C@H](CCC(=O)O)NC(=O)[C@@H](NC(=O)[C@H](CCC(=O)O)NC(=O)[C@H](CCC(=O)O)NC(=O)CNC(=O)[C@@H](NC(=O)[C@H](Cc1ccccc1)NC(=O)[C@@H]1CCCN1C(=O)[C@H](CCCCN)NC(=O)[C@H](CCC(N)=O)NC(=O)[C@@H](N)Cc1ccccc1)[C@@H](C)O)C(C)C)[C@@H](C)CC)[C@@H](C)O)[C@@H](C)CC)C(=O)O [PF-437] (H-FQKPFTGEEVEDFQDDDEIPTII-OH; N-terminus and C-terminus assumed)	50 (≈ 136 µg/mL)
CC(C)C[C@H](NC(=O)[C@H](CCCCN)NC(=O)CNC(=O)[C@@H](N)CS)C(=O)N[C@@H](CC(C)C)C(=O)N[C@@H](CCC(=O)O)C(=O)N[C@@H](CCC(N)=O)C(=O)N[C@@H](CCCCN)C(=O)N[C@@H](CC(N)=O)C(=O)N[C@@H](Cc1ccccc1)C(=O)N[C@@H](Cc1ccccc1)C(=O)N[C@@H](CC(C)C)C(=O)N[C@@H](CCCCN)C(=O)N[C@H](C(=O)N[C@@H](CCCNC(=N)N)C(=O)O)[C@@H](C)O [PF-521] (H-CGKLLEQKNFFLKTR-OH; N-terminus and C-terminus assumed)	50 (≈ 91.3 µg/mL)

same assay, conditions: S. pneumoniae; TSB supplemented with 5% yeast extract, 37° C., 10% CO2; inoculum 10^6 CFU/ml; 18-24 h or 48 h

Compound	MIC [µM]
LSEMERRRLRKRA [PF-529]	50
LGLTAGVAYAAQPTNQPTNQPTNQPTNQPTNQPTNQPRW [PF-520]	50
CC[C@H](C)[C@H](NC(=O)[C@H](CCC(=O)O)NC(=O)[C@@H]1CCCN1C(=O)[C@H](CCSC)NC(=O)[C@H](Cc1ccccc1)NC(=O)[C@@H](N)CO)C(=O)N[C@@H](CCC(N)=O)C(=O)N[C@@H](CCCCN)C(=O)N[C@@H](CC(N)=O)C(=O)N[C@H](C(=O)N[C@H](C(=O)N1CCC[C@H]1C(=O)N[C@H](C(=O)N[C@@H](CCC(N)=O)C(=O)N[C@@H](CCSC)C(=O)N[C@@H](CCCCN)C(=O)O)[C@@H](C)O)[C@@H](C)CC)[C@@H](C)O [PF-512] (H-SFMPEIQKNTIPTQMK-OH; N-terminus and C-terminus assumed)	50 (≈ 94.7 µg/mL)
CC[C@H](C)[C@H](NC(=O)[C@H](CC(C)C)NC(=O)[C@@H]1CCCN1C(=O)[C@@H]1CCCN1C(=O)[C@H](CCCCN)NC(=O)[C@@H](NC(=O)[C@H](Cc1ccc(O)cc1)NC(=O)[C@H](CC(C)C)NC(=O)[C@H](CO)NC(=O)[C@H](CCC(N)=O)NC(=O)[C@H](CCSC)NC(=O)[C@@H](N)C(C)C)C(C)C)C(=O)N[C@@H](CC(C)C)C(=O)N[C@H](C(=O)N[C@H](C(=O)N[C@@H](CCCCN)C(=O)N[C@@H](CC(C)C)C(=O)N[C@@H](C)C(=O)N[C@@H](CCC(N)=O)C(=O)N[C@@H](CCC(N)=O)C(=O)N[C@@H](CC(N)=O)C(=O)O)[C@@H](C)O)C(C)C [PF-511] (H-VMQSLYVKPPLILVTKLAQQN-OH; N-terminus and C-terminus assumed)	50 (≈ 119 µg/mL)

system: Candida albicans; test: Binding of targeting peptides to Candida albicans; settings: tested at 3.13, 6.25, 12.5 and 25.0 μM in 1× PBS or HEPES/NaCl/MgCl2/0.1% CTAB
Description: The peptides in Table 6 were tested for binding efficiency at 3.13, 6.25, 12.5 and 25.0 μM concentrations in 1× phosphate-buffered saline or 20 mM HEPES (4-(2-hydroxyethyl)-1-piperazineethanesulfonic acid), 150 mM sodium chloride, 1 mM magnesium chloride and 0.1% CTAB.

Compound	Target(s): form of Candida albicans bound
EVYSSPTNNVAITVQNN [PF-178]	hyphae
HSSHL (HARAAVGVAELPRGAAVEVELIAAVRP; Antimicrobial peptide and/or targeting peptide) [PF-060]	hyphae
RLARGRPTNLCGRRG [PF-170]	yeast cells
GGTKEIVYQRG [1T-68]	yeast cells
NILFGIIGFVVAMTAAVIVTAISIAK [PF-543]	hyphae
NRQAQGERAHGEQQG [1T-70]	yeast cells
HARAAVGVAELPRGAAVEVELIAAVRP [1T-65]	hyphae
MIHLTKQNTMEALHFIKQFYDMFFILNFNV [PF-040]	hyphae
SKFELVNYASGCSCGADCKCASETECKCASKK [PF-761]	hyphae
VVRRFQGM [PF-141]	hyphae
LVRLA (NILFGIIGFVVAMTAAVIVTAISIAK; Antimicrobial peptide and/or targeting peptide) [PF-636]	hyphae
RLTSNQFLTRITPFVFAQH [PF-176]	yeast cells
AIEGVIKKGACFKLLRHEMF [PF-167]	yeast cells
EILNNNQVIKELTMKYKTQFESNLGGWTARARR [PF-580]	hyphae
VYRHLRFIDGKLVEIRLERK [1T-36]	hyphae
KLRSASKKSLQEKSCGIMPEKPAG [PF-206]	hyphae
DLRKAK (VVRRFQGM; Antimicrobial peptide and/or targeting peptide) [PF-024]	hyphae
RFFNFEIKKSTKVDYVFAHVDLSDV [PF-051]	hyphae
MPKARPVNHNKKKSKITIKSNFTLFYMFNP [PF-634]	hyphae
GVGIGFIMMGVVGYAVKLVHIPIRYLIV [PF-770]	hyphae

system: A. niger; test: not given; type: cell-based, Aspergillus niger; settings: A. niger; Potato Dextrose Agar, 25° C., aerobic; inoculum 10^5 CFU/ml; 18-24 h or 48 h
Description: as §1, §2

Compound	MIC [µM]
LSEMERRRLRKRA [PF-529]	50

system: B. subtilis; test: not given; type: cell-based, Bacillus subtilis; settings: not given
Description: as §1, §2

Compound	MIC [µM]
CC[C@H](C)[C@H](NC(=O)[C@H](Cc1ccccc1)NC(=O)[C@@H](NC(=O)[C@H](Cc1ccccc1)NC(=O)[C@H](CC(C)C)NC(=O)[C@H](CC(=O)O)NC(=O)[C@@H](NC(=O)[C@H](CS)NC(=O)[C@@H](NC(=O)[C@H](CCCNC(=N)N)NC(=O)[C@H](CC(C)C)NC(=O)[C@@H](NC(=O)[C@@H](N)CC(C)C)C(C)C)[C@@H](C)CC)[C@@H](C)O)[C@@H](C)O)C(=O)N[C@@H](CCCCN)C(=O)N[C@@H](Cc1c[nH]c2ccccc12)C(=O)N[C@H](C(=O)N[C@H](C(=O)N[C@@H](CCCCN)C(=O)N[C@@H](CCC(N)=O)C(=O)N[C@@H](CCCNC(=N)N)C(=O)N[C@@H](CCCCN)C(=O)N[C@@H](CO)C(=O)O)[C@@H](C)CC)[C@@H](C)O [PF-497] (H-LVLRICTDLFTFIKWTIKQRKS-OH; N-terminus and C-terminus assumed)	50 (≈ 136 µg/mL)
CC[C@H](C)[C@H](NC(=O)CN)C(=O)N[C@H](C(=O)N[C@@H](CC(C)C)C(=O)N[C@H](C(=O)NCC(=O)N[C@@H](CC(C)C)C(=O)N[C@@H](CCCCN)C(=O)N[C@@H](CC(C)C)C(=O)N[C@H](C(=O)N1CCC[C@H]1C(=O)N[C@@H](CC(C)C)C(=O)N[C@@H](CC(C)C)C(=O)N[C@@H](C)C(=O)N[C@@H](CC(N)=O)C(=O)N[C@H](C(=O)N[C@@H](CC(C)C)C(=O)N[C@@H](CCCNC(=N)N)C(=O)O)C(C)C)[C@@H](C)CC)[C@@H](C)CC)C(C)C [PF-322] (H-GIVLIGLKLIPLLANVLR-OH; N-terminus and C-terminus assumed)	50 (≈ 95.8 µg/mL)
CC[C@H](C)[C@H](NC(=O)[C@H](CCCNC(=N)N)NC(=O)[C@H](CCCCN)NC(=O)[C@H](CCCCN)NC(=O)[C@H](CCSC)NC(=O)[C@H](CO)NC(=O)[C@H](CC(C)C)NC(=O)[C@H](CC(C)C)NC(=O)[C@H](CCCCN)NC(=O)[C@H](CCCNC(=N)N)NC(=O)[C@@H](NC(=O)[C@@H](NC(=O)[C@@H](NC(=O)[C@H](CC(C)C)NC(=O)[C@@H](NC(=O)[C@H](Cc1ccc(O)cc1)NC(=O)[C@H](CC(C)C)NC(=O)[C@H](Cc1ccccc1)NC(=O)[C@H](CO)NC(=O)[C@H](Cc1ccc(O)cc1)NC(=O)[C@@H](N)C(C)C)C(C)C)C(C)C)[C@@H](C)CC)C(C)C)C(=O)N[C@@H](CCC(=O)O)C(=O)N[C@@H](CCCNC(=N)N)C(=O)N[C@@H](CC(C)C)C(=O)O [PF-499] (H-VYSFLYVLVIVRKLLSMKKRIERL-OH; N-terminus and C-terminus assumed)	50 (≈ 148 µg/mL)
